According to patent US20040014648A1, “Methods for the prevention and/or the treatment of neurological disorders” (FAUST PHARMACEUTICALS, priority 2002, published 2004):

What was measured:
[1] = tested on: primary cultures of neurons, isolated from the rat brain cortex; experiment: Neuroprotection assay: Ionomycin-evoked neuron cell death (LDH release); type: cell-based; details: FIG. 4
Procedure: (§1) Primary cortical neuron cultures.
Assessment of neuron cell death.
The neurons were treated in vitro with 5 μM of Ionomycin (Sigma), a calcium ionophore, in presence of 10 μM of 1-Naphthol, in absence or in presence of 5 or 10 μM of 3-methylcholanthrene (3-MC, Aldrich), an UGT inducer which allows the in situ glucuronidation of 1-Naphthol.

[2] = tested on: primary cultures of neurons isolated from the rat brain cortex; experiment: Glutamate level determination (chemiluminescent enzymatic assay); type: cell-based; details: FIG. 5
Procedure: as §1
Assessment of glutamate release. Glutamate released by neurons in culture was evaluated in aliquots of the supernatants by means of a chemiluminescent enzymatic assay (Israel et al., Neurochem Int. 1993 Jan. 22(1):53-8).
The glutamate released by neurons was followed by an enzymatic assay coupled to a chemiluminescent reaction. […]

[3] = tested on: primary cultures of neurons, isolated from the rat brain cortex; details: 3-NP 400 μM, 24 hours; compound at 0.1, 1 and 5 μM; FIG. 2

Oc1cccc2ccccc12 [1-Naphthol]
protective effect with in situ glucuronidation by 3-MC ([1]; Ionomycin 5 μM, compound at 10 μM plus 3-MC 5 or 10 μM): reinforces, dose dependently, the protective effect | protection of neurons from Ionomycin-evoked cell death ([1]; Ionomycin 5 μM, compound at 10 μM): protects neurons from Ionomycin-evoked cell death | glutamate release by neurons ([2]; compound at 1 μM and 10 μM (lanes 4, 7)): at both concentrations reduces the release of glutamate | glutamate release with glucuronidation by 3-MC ([2]; compound at 10 μM plus 3-MC 1 or 5 μM): reinforces, dose dependently, the decrease of glutamate | glutamate release by neurons ([2]; compound at 10 μM): reduces glutamate release | significance of the improved decrease of glutamate with 3-Methylcholanthrene ([2]; compound at 1 or 10 μM plus 3-Methylcholanthrene 5 μM (lanes 6, 9)): statistically significant at the highest dose of 3-Methylcholanthrene

Cc1ccc2cc3c(ccc4ccccc43)c3c2c1CC3 [3-Methylcholanthrene, 3-methylcholanthrene, reference compound]
protective effect against the toxicity induced by Ionomycin ([1]; Ionomycin 5 μM, compound alone at 5 or 10 μM (lanes 5, 6)): no protective effect against the toxicity induced by Ionomycin | effect on the natural death of neurons ([1]; compound alone at 5 or 10 μM, no Ionomycin (lanes 2, 3)): no effect on the natural death of neurons | glutamate release by neurons ([2]; compound alone at 5 μM (lane 3)): have no effect on glutamate release

CN1C(=O)CN=C(c2ccccc2)c2cc(Cl)ccc21 [Diazepam]
protection of neurons from 3-NP-evoked cell death [3]: protects neurons from 3-NP at all tested doses
